Data: patent publication US7250521B2, “Method for production of Δ1-pyrrolines” (Bayer CropScience Aktiengesellschaft, priority 2001, dated 2007)

Assay: logP determination by HPLC on reverse-phase column (C 18), EEC directive 79/831 Annex V.A8
Type: physicochemical
Procedure: In the acidic range, the determination is carried out at pH 2.3 using the mobile phases 0.1% aqueous phosphoric acid and acetonitrile; linear gradient from 10% acetonitrile to 90% acetonitrile.
In the neutral range, the determination is carried out at pH 7.5 using the mobile phases 0.01 molar aqueous phosphate buffer solution and acetonitrile; linear gradient from 10% acetonitrile to 90% acetonitrile.

[1] = reverse-phase HPLC column (C 18), pH 2.3, acidic range, pH 2.3; 0.1% aqueous phosphoric acid/acetonitrile gradient; 43° C.; values marked a)
[2] = reverse-phase HPLC column (C 18), pH 7.5, neutral range, pH 7.5; 0.01 molar aqueous phosphate buffer/acetonitrile gradient; 43° C.; values marked b)

chromatographic logP [1]	chromatographic logP [2]	chromatographic logP (acidic range, pH 2.3; 0.1% aqueous phosphoric acid/acetonitrile gradient; 43° C.; values marked a))	SMILES
5.03	5.33		Cc1cc(Cl)ccc1C1CCC(c2cc(Cl)ccc2Cl)=N1 (centres unmarked) [Example 61]
3.36	4.69		Cc1ccc(C2CCC(c3ccccc3Br)=N2)cc1Cl (centres unmarked) [Example 62]
1.74	3.74		Fc1ccc(C2CCC(c3ccccc3F)=N2)cc1F (centres unmarked) [Example 63]
2.73	4.2		Fc1ccc(C2CCC(c3ccc(C(F)(F)F)cc3)=N2)cc1 (centres unmarked) [Example 64]
2.23	4.31		Fc1ccc(C2CCC(c3ccc(OC(F)(F)F)cc3)=N2)cc1 (centres unmarked) [Example 65]
2.02	4.26		FC(F)(F)Oc1ccc(C2=NC(c3ccccc3)CC2)cc1 (centres unmarked) [Example 66]
	6.04		Clc1ccccc1C1=NC(c2ccc(C3CCCCC3)cc2)CC1 (centres unmarked) [Example 67]
	4.41		Fc1ccccc1C1=NC(c2ccc(OC(F)(F)F)cc2)CC1 (centres unmarked) [Example 68]
	4.07		Clc1cccc(C2=NC(c3ccccc3)CC2)c1Cl (centres unmarked) [Example 69]
3.47	5.33		Clc1ccccc1C1=NC(c2ccc(CCc3ccccc3)cc2)CC1 (centres unmarked) [Example 70]
2.82	4.45		Cc1ccc(C2CCC(c3ccccc3Cl)=N2)c(C)c1 (centres unmarked) [Example 71]
1.59	4.06		Brc1ccc(C2=NC(c3ccccc3)CC2)cc1 (centres unmarked) [Example 72]
	4.13		Fc1cccc(F)c1C1=NC(c2ccc(OC(F)(F)F)cc2)CC1 (centres unmarked) [Example 73]
1.96	4.04		Cc1ccc(C2CCC(c3ccccc3Cl)=N2)cc1 (centres unmarked) [Example 74]
1.88	3.06		CC(=O)c1ccc(C2CCC(c3ccccc3Cl)=N2)cc1 (centres unmarked) [Example 75]
1.16	3.45		Fc1ccccc1C1=NC(c2ccccc2)CC1 (centres unmarked) [Example 76]
4.23	6.03		Brc1ccccc1C1=NC(c2ccc(C3CCCCC3)cc2)CC1 (centres unmarked) [Example 77]
3.84	5.56		Fc1cccc(F)c1C1=NC(c2ccc(C3CCCCC3)cc2)CC1 (centres unmarked) [Example 78]
2.86	5.95		Fc1ccccc1C1=NC(c2ccc(C3CCCCC3)cc2)CC1 (centres unmarked) [Example 79]
2.55	4.46		Cc1ccc(C2CCC(c3ccccc3Br)=N2)c(C)c1 (centres unmarked) [Example 80]
2.17	4.07		Cc1ccc(C2CCC(c3ccccc3Br)=N2)cc1 (centres unmarked) [Example 81]

chromatographic logP [1]	chromatographic logP [2]	chromatographic logP (acidic range, pH 2.3; 0.1% aqueous phosphoric acid/acetonitrile gradient; 43° C.; values marked a))	SMILES
2.6	4.23		Clc1ccc(C2CCC(c3ccccc3Cl)=N2)cc1 (centres unmarked) [Example 82]
2.96	4.22		Clc1ccc(C2CCC(c3ccccc3Br)=N2)cc1 (centres unmarked) [Example 83]
2.14	3.09		CC(=O)c1ccc(C2CCC(c3ccccc3Br)=N2)cc1 (centres unmarked) [Example 84]
1.62	3.88		CSc1ccc(C2CCC(c3ccccc3F)=N2)cc1 (centres unmarked) [Example 85]
1.66	3.47		COc1ccc(C2CCC(c3ccccc3Cl)=N2)cc1 (centres unmarked) [Example 86]
1.21	3.32		COc1ccc(C2CCC(c3ccccc3F)=N2)cc1 (centres unmarked) [Example 87]
3.77	5.35		Brc1ccccc1C1=NC(c2ccc(CCc3ccccc3)cc2)CC1 (centres unmarked) [Example 88]
2.76	4.36		Clc1ccccc1C1=NC(c2ccc(Br)cc2)CC1 (centres unmarked) [Example 89]
1.43			Clc1ccc(C2=NC(c3ccccc3)CC2)cc1 (centres unmarked) [Example 90]
1.64	3.61		Clc1ccccc1C1=NC(c2ccccc2)CC1 (centres unmarked) [Example 91]
2.17			Clc1ccc(C2=NC(c3ccc(Br)cc3)CC2)cc1 (centres unmarked) [Example 92]
1.75			Fc1cccc(F)c1C1=NC(c2ccccc2)CC1 (centres unmarked) [Example 93]
1.29	3.7		Cc1ccccc1C1=NC(c2ccccc2)CC1 (centres unmarked) [Example 94]
2	3.68		Fc1ccc(C2CCC(c3ccccc3Cl)=N2)cc1 (centres unmarked) [Example 95]
3.14			CCOC(=O)Oc1ccc(-c2ccc(C3CCC(c4ccccc4Cl)=N3)cc2)cc1 (centres unmarked) [Example 96]
1.83			Fc1ccccc1C1=NC(c2ccc(Br)cc2)CC1 (centres unmarked) [Example 97]
3.11			Brc1ccc(C2CCC(c3ccccc3Br)=N2)cc1 (centres unmarked) [Example 98]
2.18			Fc1ccc(C2CCC(c3ccccc3Br)=N2)cc1 (centres unmarked) [Example 99]
1.73	4.14		Fc1ccc(C2CCC(c3ccc(Br)cc3)=N2)cc1 (centres unmarked) [Example 100]
3.51	5.95		FC(F)(F)Oc1ccc(-c2ccc(C3CCC(c4ccc(Br)cc4)=N3)cc2)cc1 (centres unmarked) [Example 101]
4.52	5.56		FC(F)(F)Oc1ccc(-c2ccc(C3CCC(c4ccccc4Br)=N3)cc2)cc1 (centres unmarked) [Example 102]

chromatographic logP [1]	chromatographic logP [2]	chromatographic logP (acidic range, pH 2.3; 0.1% aqueous phosphoric acid/acetonitrile gradient; 43° C.; values marked a))	SMILES
3.26			CC(C)Oc1cc(-c2ccccc2)ccc1C1CCC(c2ccccc2Cl)=N1 (centres unmarked) [Example 103]
0.59			Oc1ccc(C2CCC(c3ccccc3F)=N2)cc1 (centres unmarked) [Example 104]
4.87			FC(F)(F)Oc1ccc(C2=NC(c3cccc(Cl)c3)CC2)cc1 (centres unmarked) [Example 105]
0.91			Oc1ccc(C2CCC(c3c(F)cccc3F)=N2)cc1 (centres unmarked) [Example 106]
3.26			Fc1cccc(F)c1C1=NC(c2ccc(OCc3ccc(Cl)cc3)cc2)CC1 (centres unmarked) [Example 107]
3.41			Fc1cccc(F)c1C1=NC(c2ccc(OCc3ccc(C(F)(F)F)cc3)cc2)CC1 (centres unmarked) [Example 108]
3.61			Fc1cccc(F)c1C1=NC(c2ccc(OCc3ccc(OC(F)(F)F)cc3)cc2)CC1 (centres unmarked) [Example 109]
2.14			CC(C)Oc1ccc(C2CCC(c3c(F)cccc3F)=N2)cc1 (centres unmarked) [Example 110]
4.55			Cc1cc(OC(F)(F)F)ccc1-c1ccc(C2CCC(c3c(F)cccc3F)=N2)cc1 (centres unmarked) [Example 111]
4.57			Cc1cc(-c2ccc(C3CCC(c4c(F)cccc4F)=N3)cc2)ccc1OC(F)(F)F (centres unmarked) [Example 112]
3.98			Fc1cccc(F)c1C1=NC(c2ccc(-c3ccc(Br)cc3)cc2)CC1 (centres unmarked) [Example 113]
5.05			Fc1cc(F)c(C2=NC(c3ccc(-c4ccc(SC(F)(F)F)cc4)cc3)CC2)c(F)c1 (centres unmarked) [Example 114]
5.46			Fc1ccc(F)c(C2=NC(c3ccc(-c4ccc(SC(F)(F)F)cc4)cc3)CC2)c1F (centres unmarked) [Example 115]
2.94			COc1ccc(C2=NC(c3ccc(-c4ccc(OC(F)(F)F)cc4)cc3)CC2)cc1 (centres unmarked) [Example 116]
4.57			Fc1cc(F)c(C2=NC(c3ccc(-c4ccc(OC(F)(F)F)cc4)cc3)CC2)c(F)c1 (centres unmarked) [Example 117]
5.05			Fc1ccc(F)c(C2=NC(c3ccc(-c4ccc(OC(F)(F)F)cc4)cc3)CC2)c1F (centres unmarked) [Example 118]
2			O=C1CCC(c2ccc(OC(F)(F)F)cc2)N1 (centres unmarked) [Example V-1, 5-[4-(trifluoromethoxy)phenyl]-2-pyrrolidinone]
2.84			CCOc1cc(C(C)(C)C)ccc1C1CCC(=O)N1 (centres unmarked) [Example V-3, 5-(4-tert-butyl-2-ethoxyphenyl)-2-pyrrolidinone]
1.9			CC(C)(C)c1ccc(C2CCC(=O)N2)cc1 (centres unmarked) [Example V-4]
2.13			CC(C)c1ccc(C2CCC(=O)N2)cc1 (centres unmarked) [Example V-5]
1.86			Cc1cc(Cl)ccc1C1CCC(=O)N1 (centres unmarked) [Example V-6]

chromatographic logP [1]	chromatographic logP [2]	chromatographic logP (acidic range, pH 2.3; 0.1% aqueous phosphoric acid/acetonitrile gradient; 43° C.; values marked a))	SMILES
1.92			Cc1ccc(C2CCC(=O)N2)c(Cl)c1 (centres unmarked) [Example V-7]
2.02			O=C1CCC(c2ccc(Cl)cc2Cl)N1 (centres unmarked) [Example V-8]
1.29			COc1ccc(C2CCC(=O)N2)cc1F (centres unmarked) [Example V-9]
1.92			O=C1CCC(c2ccc(Cl)c(Cl)c2)N1 (centres unmarked) [Example V-10]
		1.61	O=C1CCC(c2ccc(Cl)cc2)N1 (centres unmarked) [Example V-11]
1.92			Cc1ccc(C2CCC(=O)N2)cc1Cl (centres unmarked) [Example V-12]
1.43			O=C1CCC(c2ccc(F)c(F)c2)N1 (centres unmarked) [Example V-13]
1.52			Cc1ccc(C2CCC(=O)N2)cc1 (centres unmarked) [Example V-14]
1.21			O=C1CCC(c2ccccc2)N1 (centres unmarked) [Example V-15]
1.72			O=C1CCC(c2ccc(Br)cc2)N1 (centres unmarked) [Example V-16]
1.32			O=C1CCC(c2ccc(F)cc2)N1 (centres unmarked) [Example V-17]
1.47			O=C1CCC(c2ccc(-c3ccc(O)cc3)cc2)N1 (centres unmarked) [Example V-18]
0.55			O=C1CCC(c2ccc(O)cc2)N1 (centres unmarked) [Example V-19]
2.39			CCOC(=O)Oc1ccc(-c2ccc(C3CCC(=O)N3)cc2)cc1 (centres unmarked) [Example V-20]
2.77			CC(C)Oc1ccc(-c2ccc(C3CCC(=O)N3)cc2)cc1 (centres unmarked) [Example V-21]
3.62			O=C1CCC(c2ccc(-c3ccc(OCc4ccc(Cl)cc4)cc3)cc2)N1 (centres unmarked) [Example V-22]
3.83			O=C1CCC(c2ccc(-c3ccc(OCc4ccc(OC(F)(F)F)cc4)cc3)cc2)N1 (centres unmarked) [Example V-23]
1.59			O=C1CCC(c2ccc(SC(F)(F)F)cc2)N1 (centres unmarked) [Example V-25]
2.69			CC(C)(C)Sc1ccc(C2CCC(=O)N2)cc1 (centres unmarked) [Example V-26]
